Measured values: patent US20260234188A1, “CHEMOKINE-BINDING PEPTIDES” (Oxford University Innovation Limited, priority 2022, published 2026)
Entries after “also recorded” stand apart in the source; their conditions may differ.

How the values were obtained:
[1] = system: panel of 24 biotinylated chemokines; test: Phage-display screen of HD2 NNK saturation mutagenesis library; type: binding, human; conditions: for Chemokines Bound log2E 1-5 / Chemokines Bound log2E > 5: HD2 saturation mutants, chemokines on streptavidin beads, UniProt entry names; for peak log 2 E: best mutation at each residue
Excerpt: (§1) FIG. 7. Exemplar results from phage display screens using saturation mutagenesis. A phage-display library was constructed using the HD2 sequence, replacing each residue encoding codon with the degenerate sequence NNK. The 16 degenerate sequences (which also encoded the parental HD2 sequence) were pooled and cloned into display phage. […] Exemplar peptides were selected such that log 2 E for at least one chemokine was greater than 5, and log 2 E for binding to control (CO5, was less than zero). […] The fold enrichment of parental HD2 is also indicated.
as §1, with “A” for “FIG. 7. Exemplar results from phage display screens using saturation mutagenesis. A”
A molecular level understanding of binding mechanism is needed for development of peptides as therapeutics and is usually obtained from structural analyses. As HD2 binds many chemokines this becomes a challenging task, and we explored if we could elucidate this using phage display mutagenesis. The role of each residue in HD2 for binding was examined in phage-display. A library of HD2 mutations that had NNK substituted at each residue and performed phage-display selection against a panel of 24 biotinylated chemokines, in parallel, as described in Example 7. This strategy allowed us to evaluate the impact not only of Ala substitutions, but also conservative, hydrophilic and hydrophobic substitutions, and compare with binding of parental HD2 which is also included in the library. Ala substitution removes side-chains beyond the β-carbon and can be used to infer the role of side-chain functional groups without affecting conformational flexibility of the backbone. […] These residues are within the two motifs identified previously. Other notable residues identified were Y8 and P10. We next judged the impact of Ala mutation by calculating the change in log 2 E (Δlog 2 E) between the mutant and parental HD2. A positive value of Δlog 2 E indicates increased binding, and a negative value decreased binding compared to parental HD2. […] As may be seen, the log 2 E for the parental HD2 was ~0 in these analyses indicating lack of enrichment.
Oligonucleotide pools were amplified using primers: oligo_fwd: 5′-[…] and oligo_rev2: 5′-tcgtcaccctcggcgcctcctcoggatcctccacc. Oligonucleotide PCR products were cloned into plasmid prSTOP4Nsi using NEB Builder HiFi Assembly following instructions of the manufacturer. The vector pool was used to transform electrocompetent Invitrogen ElectroMAX™ DH5α-E™ cells. Plasmid DNA was harvested by MaxiPrep (GeneJet Plasmid Maxiprep Kit) and was transformed into SS320 phage display electrocompetent cells (Lucigen), following the manufacturer's protocol, resuspended in 950 μL recovery media for each electroporation, transferred to 50 mL Falcon tubes, 100 μL 1011 CFU/mL M13KO7 helper phage (NEB) added and shaken at 37° C., 220 RPM for 1 h. 1 mL recovery culture was added to 2YT medium containing +50 ug/mL carbenicillin and 25 ug/mL kanamycin, and grown overnight at 37C, 220 rpm. Phage was precipitated from the culture supernatant by adding 22.5 mL of supernatant to 4.5 mL 20% PEG 8000/2.5 M NaCl, incubating on ice for 30 min, and centrifuging at 10,000 RPM, 4° C. for 10 min, and resuspending phage in 1 ml of PBT, followed by centrifugation at 13000 RPM, 4° C., for 10 min. […]

[2] = system: panel of 25 biotinylated chemokines (15 CC-class chemokines, 10 CXC-class chemokines); test: Phage-display screen of HD845 NNK mutagenesis library; type: binding, human; conditions: for peak log 2 E: best mutation at each residue
Experimental: NNK mutagenesis library construction and screening was performed for the HD845 peptide using the methods described in Example 19. […] Following library selection with each chemokine, the enrichment (E) of each peptide was calculated in comparison to the input library, and expressed the enrichment as log 2 E, as this metric is correlated with binding affinity.
A two-pronged strategy was used to identify individual peptides with mutations that improve chemokine binding over the parental peptide HD845. To identify mutations that improve overall chemokine binding affinity, the best performing mutations were selected at each residue by their enhancement of mean log 2 E (FIG. 27A). To add in mutations that improve chemokine binding diversity, the best performing mutations at each residue were identified by their enhancement of peak log 2 E (FIG. 27B).

Sequence	Chemokines Bound log2E 1-5 [1]	Chemokines Bound log2E > 5 [1]	further results
EEDDYTAYAPLTSYFT [HD901]	–	–	effect on Δlog 2 E ([1]; conservative residue substitutions (Dayhoff PAM250), mutant versus parental HD2): significant deleterious effect
EEDDYTAYAPLICYFT [HD2_112]	CCL18, CCL25, CCL28, CCL4,; also recorded: X3CL1, CXL10, SDF1, CXL13,; also recorded: CXL14	CCL19	peak log 2 E [1]: highest peak log 2 E at that residue
EEDDYTAYAPQTCYFT [HD2_Q11]	CCL1, CCL11, CCL15, CCL18,; also recorded: CCL22, CCL4, CCL5, CCL8	CCL17	–
EDEDYWDFFKPVTCYF [E6W]	–	–	peak log 2 E [2]: highest peak log 2 E at that residue; mean log 2 E compared to parental HD845 ([2]; over XC chemokines): significant improvement; mean log 2 E compared to parental HD845 ([2]; over all chemokines): significant improvement
EEDDYTAYAPFTCYFT [HD2_F11]	CCL18, CXL11, CXL13, CXL14	CCL20	–
EEDDYEAYAPLTCYFT [HD2_E6]	CCL1, CCL11, CCL15, CCL17,; also recorded: CCL18, CCL19, CCL2, CCL22,; also recorded: CCL28, CCL3, CCL4, CCL5, CCL8,; also recorded: X3CL1, CXL10, CXL11, CXL14	SDF1, CXL13	–
EEDDYTAYAPYTCYFT [HD2_Y11]	CCL1, CCL11, CCL15, CCL17,; also recorded: CCL18, CCL19, CCL2, CCL20,; also recorded: CCL3, CCL4, CCL5, CCL8, X3CL1,; also recorded: CXL11, CXL13, CXL14	CCL22	–
EEDDYSAYAPLTCYFT [HD2_S6]	CCL11, CCL15, CCL17, CCL18,; also recorded: CCL2, CCL22, CCL4, CCL5, CCL8,; also recorded: X3CL1, CXL10, SDF1, CXL13, IL8	CCL1, CCL3	–
EDEDYEDFFAPVTCYF [K10A]	–	–	peak log 2 E [2]: highest peak log 2 E at that residue; mean log 2 E compared to parental HD845 ([2]; over CC chemokines): significant improvement; mean log 2 E compared to parental HD845 ([2]; over all chemokines): significant improvement
DEDDYTAYAPLTCYFT [E1D]	–	–	mean log 2 E compared to parental HD2 ([1]; over all chemokines): enhancement over the parental that was not statistically significant
EDDDYTAYAPLTCYFT [E2D]	–	–	mean log 2 E compared to parental HD2 ([1]; over all chemokines): enhancement over the parental that was not statistically significant
EEDDYTAYAPLHCYFT [HD2_H12]	CCL15, CCL28, CCL4, CCL5	CCL22	–
EEDDYTWYAPLTCYFT [A7W]	–	–	mean log 2 E compared to parental HD2 ([1]; over XC (CXC/CX3C) chemokines): significant improvement
EEDDYTAYAPLVCYFT [HD2_V12]	CCL18, CCL25, CCL28, CCL4,; also recorded: CCL8, X3CL1, CXL10, SDF1,; also recorded: CXL13, CXL14	CCL19	–
EEDDYTEYAPLTCYFT [HD2_E7]	CCL1, CCL11, CCL15, CCL18,; also recorded: CCL2, CCL22, CCL28, CCL3,; also recorded: CCL4, CCL5, CCL8, X3CL1,; also recorded: CXL10, CXL14, IL8	SDF1, CXL13	–
EEEDYTAYAPLTCYFT [HD2_E3]	CCL8, X3CL1; also recorded: CCL1, CCL11, CCL15, CCL17,; also recorded: CCL18, CCL22, CCL4, CCL5,	CCL3	–
EDEDYFDFFKPVTCYF [E6F]	–	–	mean log 2 E compared to parental HD845 ([2]; over CC chemokines): significant improvement
EEDDYTDYAPLTCYFT [HD2_D7]	CCL1, CCL11, CCL15, CCL17, and CCL18, CCL19, CCL2, CCL22, and CCL28, CCL3, CCL4, CCL5, CCL8, and X3CL1, CXL10, CXL11, CXL14, and IL8	SDF1, CXL13	mean log 2 E compared to parental HD2 ([1]; over all chemokines): significant improvement
EEDDYTAYAPTTCYFT [HD2_T11]	CCL11, CCL17, CCL18, CCL22,; also recorded: CCL4, CCL5, CCL8	CCL15	–
EEDDYTAYADLTCYFT [HD2_D1C]	–	CXL11	peak log 2 E [1]: highest peak log 2 E at that residue
EEDDYTAYAPVTCYFT [HD2_V11]	CCL1, CCL11, CCL15, CCL18,; also recorded: CCL2, CCL22, CCL28, CCL3,; also recorded: CCL4, CCL5, CCL8, CXL10,; also recorded: CXL11, CXL13	CCL17	–
EEDDYTAYAPLTCYFD [HD2_D16]	CCL1, CCL11, CCL17, CCL18,; also recorded: CCL2, CCL22, CCL3, CCL4, CCL5,; also recorded: CCL8, X3CL1, CXL10, CXL11,; also recorded: CXL13, CXL14	SDF1	–
